A melting point compilation (Tetko et al.; mined from patent text by program, amines drawn as free bases though some values may be those of a salt)

| melting point | Structure (SMILES) |
| --- | --- |
| 144 °C | O=C(c1cc(C(F)(F)F)cc(C(F)(F)F)c1)N1CCC(N2CCN(Cc3ccccc3)CC2)CC1Cc1ccccc1 (stereo not drawn) |
| 203 to 204 °C | Cc1cc(C)c2nc(C3CC3)n(Cc3ncc(C4(C(=O)O)CC=CC4)cn3)c2n1 |
| 177 to 179 °C | CCCCNC(=O)C(Cc1ccccc1)NC(=O)Nc1n[nH]c(=S)s1 (stereo not drawn) |
| 125 to 133 °C | CCC1(CC)C(=O)N(C(C)(C)C)CC(C)(C)N1OC(C(=O)O)c1ccccc1 (stereo not drawn) |
| 214 to 215 °C | CCc1nc2c(C)cc(C)nc2n1Cc1ccc(C2(C(=O)O)CCOCC2)s1 |
| 47 to 49 °C | ClCCCCSCc1ccc2ccccc2c1 |
| 97 to 99 °C | CCOC(=O)c1ccc(OCCCCC2CC3=C(C2)C(=O)C(OC)=C(OC)C3=O)cc1 |
| 217 °C | O=CNc1cccc2c1SC1=NCCN12 |
| 126 to 128 °C | COC1(c2cc(F)cc(OCc3ccc(N(C)S(C)(=O)=O)c(Cl)c3)c2)CCOCC1 |
| 117 °C | O=C1CC(c2ccccc2)c2cc(Br)ccc2O1 (stereo not drawn) |
| 169 to 170 °C | Cc1c(Cc2cccc(C(F)(F)F)c2)oc2cccc(-c3cccc(C(=O)O)c3)c12 |
| 168 to 170 °C | CN=C(O)c1c(Sc2ccc(OC)cc2)c(Sc2ccc(OC)cc2)c(Sc2ccc(OC)cc2)c(Sc2ccc(OC)cc2)c1C(=O)O |
| 162 to 168 °C | COC(=O)c1cc2nc(-c3ccccc3)nn2cc1F |
| 110 to 111 °C | COc1ccc(CCNC(=O)C2CCCCC2)cc1OC |
| 120 to 122 °C | O=C(O)C(OCc1ccc(-c2ccc(Cl)cc2)cc1)c1ccc(Cl)cc1 (stereo not drawn) |
| 147 to 148 °C | COc1ccc(C=C(Br)Br)c(OC)c1 |
| 95 to 100 °C | NC1=NC(c2ccc(OC(F)(F)F)cc2)(c2cccc(-c3cccnc3F)c2)C2=NCCN12 (stereo not drawn) |
| 106 °C | Cc1nccc2c3ccc(OCCC(C)C)cc3n(CCC(C)C)c12 |
| 132 to 136 °C | CCCOc1n[nH]c(=O)n1C1CCCCC1 |
| 107 °C | CN(C)C(CNc1c(C#N)cnn2cccc12)c1ccco1 (stereo not drawn) |
| 153 to 158 °C | CCOC(=O)c1ccc(NC(=O)C(COS(C)(=O)=O)NS(=O)(=O)c2ccc(Cl)cc2)cc1 (racemic) |
| 176 to 177 °C | CCCOc1ccccc1-c1nc2nc(N3CCOCC3)ncc2c(=O)[nH]1 |
| 186 to 188 °C | COC(=O)c1nc(-c2ccc(Cl)cc2F)nc(N)c1Br |
| 152 to 154 °C | OCc1cccc(C(O)c2cc(C(F)(F)F)nc3c(C(F)(F)F)cccc23)c1 (stereo not drawn) |

| melting point | Structure (SMILES) |
| --- | --- |
| 223 to 224 °C | CC1(C)SC2C(NC(=O)Cc3ccccc3)C(=O)N2C1NC(=O)OCC(Cl)(Cl)Cl (stereo not drawn) |
| 230 to 231 °C | COCc1nc2c(OC)ccc(C(=O)Nc3c(Cl)cncc3Cl)c2[nH]1 |
| 50 to 53 °C | CSc1sc2ccccc2c1C=O |
| 80 to 82 °C | Cc1ccc(S(=O)(=O)OCC2Cc3cc(Cl)cc(-c4cccc(Cl)c4)c3O2)cc1 (stereo not drawn) |
| 139 to 143 °C | Cc1ccccc1NC(=O)N(C)C |
| 54 to 57 °C | CC(CO)Oc1cc(-n2nc3n(c2=O)CCCC3)c(Cl)cc1Cl (stereo not drawn) |
| 93 to 94 °C | O=C(N[C@@H](CSC(=O)OCc1ccccc1)C(=O)O)OCc1ccccc1 |
| 170 to 172 °C | CCC(=O)c1cc2cc(OC)ccc2[nH]1 |
| 132 °C | O=[N+]([O-])c1cc(S(=O)(=O)NC(CO)CO)sc1Cl |
| 159 to 160 °C | CC1(C2CCC3C4CCC5CC6OC6CC5(C)C4C(=O)CC32C)OCCO1 (stereo not drawn) |
| 67 °C | Nc1ncnc2c1ncn2CCCCOCP(=O)(O)O |
| 144 to 146 °C | CCOC(=O)c1ccc(NCc2ccc(OCc3ccccc3)cc2)cc1 |
| 153 °C | Cc1ccc(C=C2c3ncc(C)cc3CCC2(C)C)cc1 |
| 211 to 213 °C | Cc1ccccc1C(=O)Nc1ccc(C(=O)N2CCCC(NC=O)c3ccccc32)cc1 (stereo not drawn) |
| 146 to 148 °C | CCC(=O)NCC[C@@H]1CCc2cc(Br)c(O)cc21 |
| 220 to 223 °C | O=C(Nc1ccc(O)cc1)Nn1cnc2ccccc2c1=O |
| 141 °C | O=c1c2ccccc2n(CCCCl)c2ccc(Cl)cc12 |
| 171 to 172 °C | C=CCN1C(=O)COc2cc(F)c(N)cc21 |
| 98 to 99 °C | CCNC(=O)n1nc(Oc2c(Cl)cc(C(F)(F)F)cc2[N+](=O)[O-])cc1C |
| 207 to 208 °C | CCN(C(=O)c1cnc(N2CC(C)NC2=O)nc1N)c1cccc(C(F)(F)F)c1 (stereo not drawn) |
| 120 to 122 °C | CSc1ccc2c3c(cccc13)C(=O)N2CCCC#N |
| 36.4 to 37.6 °C | COCC1(CCCCCCCCCCCCC2(C(=O)O)CC2)CC1 |
| 145 to 146 °C | CCCCCCCCCCCCCCCCCCOC(C)c1ccc(-c2ccc(C(=O)O)cc2)cc1 (single isomer, unassigned; (+)) |
| 94 to 95 °C | COc1cc(CCCn2ccnc2)ccc1OCc1coc(-c2cccs2)n1 |

| melting point | Structure (SMILES) |
| --- | --- |
| 204 to 205 °C | O=C1CCC(C(=O)N2CCN(C(=O)CN3CCOCC3)CC2)N1 (stereo not drawn) |
| 178 to 180 °C | CCCCc1nc(Cl)c(CO)n1Cc1ccc(Oc2ccccc2C(=O)O)cc1 |
| 208 to 210 °C | Cc1ncc2cc(-c3cc(C(F)(F)F)cc(C(F)(F)F)c3)ccc2n1 |
| 134 to 135 °C | Nc1nc2ccccc2c2c1ncn2CCOCCCc1nccs1 |
| 162 to 166 °C | O=C(NO)c1ccc2c(c1)CN(C(=O)c1ccc3ccccc3n1)C2 |
| 208 to 209 °C | Cc1ccc(-c2c(C(=O)NCc3ccccc3)oc(=O)c3ncccc23)cc1 |
| 129 to 131 °C | O=C(Nc1ccc(Cl)c(C(F)(F)F)c1)c1ccccc1SSc1ccccc1C(=O)Nc1ccc(Cl)c(C(F)(F)F)c1 |
| 189 °C | Oc1ccc2c(c1-c1ccccc1)CCCC=C2c1ccc(OCCCCCSc2ccc(C(F)(F)F)cc2)cc1 |
| 171 to 174 °C | O=C(c1ccc(-c2ccccc2)nc1)N1Cc2cccn2Cc2ccccc21 |
| 232 to 234 °C | N#Cc1cncc(-c2ccc3c(c2)C2(CCCCC2)C(=O)N3)c1 |
| 108 to 110 °C | Cc1cc(Cl)ccc1OCc1nn(C)c(=O)o1 |
| 86 to 88 °C | CC(C)(C(=O)O)c1ccc(CCNS(=O)(=O)c2ccccc2)cc1 |
| 146 to 147 °C | CC(=O)OC1CSC(Oc2cccc(-c3cccnc3Cl)c2)C(OC(C)=O)C1OC(C)=O (stereo not drawn) |
| 217 to 219 °C | NC(=O)c1sc2nc(N3CCC(NCC(O)c4ccc5ncccc5c4)CC3)cc(C(F)(F)F)c2c1N (stereo not drawn) |
| 275 to 277 °C | Cc1nc2cccc(NC(=O)CCl)c2c(=O)n1C1CCC(=O)NC1=O (stereo not drawn) |
| 131 to 135 °C | Cc1ccc(S(=O)(=O)NC(=O)C(C)(NC=O)C(C)C)cc1 (stereo not drawn) |
| 100 to 102 °C | CNC(=O)C(=NOC)c1ccccc1CO |
| 191 to 192 °C | NC(=O)C1(CCC(=O)O)c2ccccc2-c2ccccc21 |
| 56 to 66 °C | COC(=O)c1cc(-c2ccc(OC)c(F)c2)nn(CC2CCCC2)c1=O |
| 74.7 °C | CC(=O)N(C)[C@@H]1CN2C(=O)N(c3cc(Cl)cc(Cl)c3)C(=O)[C@@]2(Cc2ccc(OC(F)(F)F)cc2)C1 |
| 155 to 158 °C | CN1C(=O)C(Br)=C(c2cn(C)c3ccccc23)C1=O |
| 147 to 149 °C | Brc1ccnc2cc3c(cc12)OCO3 |
| 113 to 115 °C | CC(C)(C)C(=O)c1c[nH]c2ncc(N3CCc4ccccc4C3=O)nc12 |
| 119 to 120 °C | CC1(C)OC(=O)N(Cc2ccccc2[N+](=O)[O-])C1O (stereo not drawn) |

| melting point | Structure (SMILES) |
| --- | --- |
| 128 to 130 °C | Nc1cccc(CC2COc3ccc(OCc4ccc5ccc(Cl)cc5n4)cc3C2)c1 (single isomer, unassigned; (+)) |
| 136 to 137 °C | COCCN1CN(C)C(=O)N(c2nc3c(s2)C(=O)CC(C)(C)C3)C1 |
| 106 to 108 °C | Cn1nc(-c2ccccc2)nc1-c1ccccn1 |
| 90 to 92 °C | COc1ccc(N(CCCC(=O)O)C(=O)CCN(C(C)=O)c2c(C)cccc2C)cc1 |
| 208 to 210 °C | Cc1cc(Cc2c(F)cc(N)cc2F)n(C)c1C(=O)c1ccc(Cl)cc1 |
| 64 to 65 °C | O=C1COC(=O)C(Cc2ccccc2)O1 (stereo not drawn) |
| 168 to 170 °C | CC(NC(=S)Nc1ccc(Nc2ccccc2)nc1)C(C)(C)C (stereo not drawn) |
| 162 to 164 °C | O=C1CCC(O)(c2ccc3c(c2)OCO3)CC1 |
| 172 to 173 °C | COc1ccc(S(=O)(=O)N2C(=O)C(N)(c3ccccc3OC)c3cc(Cl)ccc32)c(OC)c1 (stereo not drawn) |
| 128 to 129 °C | Cc1c(NC(=O)c2ccc(-c3ccccc3Cl)cc2)ccc2cc(CN3CCCC3)cnc12 |
| 233 to 236 °C | COC(=O)/C=C/c1cc2c(-c3ccccc3)c(CC(=O)Nc3ccc(F)cc3C(F)(F)F)c(=O)oc2cc1C |
| 71 to 72 °C | N#Cc1nn(-c2ccccc2)c(OC(F)F)c1CO |
| 124 to 125 °C | Cc1nc(C(F)(F)F)ccc1C(=O)C1=C(Sc2ccccc2)CCCC1=O |
| 143 to 146 °C | O=[N+]([O-])c1cc(Br)ccc1-c1ccc(Br)cc1[N+](=O)[O-] |
| 69 to 72 °C | CC(C)(C)c1cc(SC2CC(=O)N(CCCCCCN3C(=O)CC(Sc4cc(C(C)(C)C)c(O)c(C(C)(C)C)c4)C3=O)C2=O)cc(C(C)(C)C)c1O (stereo not drawn) |
| 165 to 166 °C | CC(C)(C)OC(=O)N1CCC(NC(=O)c2ccc(-n3ncc4ccccc43)cc2)CC1 |
| 127 to 129 °C | CN(C(=O)c1coc(C=Cc2ccc(C(F)(F)F)cc2)n1)c1ccc(CCCCn2ccnn2)cc1 |
| 89 to 92 °C | Fc1c(F)c(F)c(CSc2ncccn2)c(F)c1F |
| 144 °C | CC#CCOc1ccc(C(=O)NC[C@@H](C(=O)NO)N2CCCCC2)cc1 |
| 102 to 105 °C | Cc1cc(C(F)(F)F)nn1CC(=O)N1CCC(c2nc(NC(=O)C3=C(O)CCCC3=O)cs2)CC1 |
| 188 to 192 °C | CCc1nc2c(N)nc3ccccc3c2n1CCCC#Cc1ccccn1 |

| Structure (SMILES) | melting point |
| --- | --- |
| O=C(O)c1ncn2c1[C@@H]1CCN1C(=O)c1cc(F)ccc1-2 | 159 to 160 °C |
| CC(Br)CN(CC(C)Br)c1c(C(=O)NCCOP(=O)(O)O)cc([N+](=O)[O-])cc1[N+](=O)[O-] (stereo not drawn) | 157 to 161 °C |
| CC1(C)C(C(=O)NC(=O)CN)C1(C)C | 176 °C |
| Cc1ccc(NP(N)(N)=O)c([N+](=O)[O-])c1 | > 180 °C |
| CC(C)n1nc(C(=O)O)c2ccccc21 | 160 to 163 °C |
